This is an account of results in patent US8946282B2, “Indolin-2-one derivatives as protein kinase inhibitors” (Annji Pharmaceutical Co., Ltd., priority 2012, dated 2015).

Each structure is given as a SMILES string. pIC50: −log10 of the molar value.

The test system of data set [1] is MV4-11 human acute myelomonocytic leukemia cells. Kind of data set: anti-proliferation, SRB colorimetric assay, MV4-11. The data set is classed as cell-based. Particulars: concentration required for 50% growth inhibition. The procedure: HCT116 human colorectal carcinoma cells (Table 3), HepG2 human hepatocellular carcinoma cells (Table 4), and MV4-11 human acute myelomonocytic leukemia cells (Table 5). Cells were treated with the test compound and the concentration required for 50% growth inhibition (IC50) determined by sulfomodamine B (SRB) colorimetric assay.
A general note: Sulforhodamine B stains cellular protein and so reports cell mass.

The target in the next data set is T1, FLT-3 (Homo sapiens, UniProt P36888).
T1 sequence (P36888 27-993): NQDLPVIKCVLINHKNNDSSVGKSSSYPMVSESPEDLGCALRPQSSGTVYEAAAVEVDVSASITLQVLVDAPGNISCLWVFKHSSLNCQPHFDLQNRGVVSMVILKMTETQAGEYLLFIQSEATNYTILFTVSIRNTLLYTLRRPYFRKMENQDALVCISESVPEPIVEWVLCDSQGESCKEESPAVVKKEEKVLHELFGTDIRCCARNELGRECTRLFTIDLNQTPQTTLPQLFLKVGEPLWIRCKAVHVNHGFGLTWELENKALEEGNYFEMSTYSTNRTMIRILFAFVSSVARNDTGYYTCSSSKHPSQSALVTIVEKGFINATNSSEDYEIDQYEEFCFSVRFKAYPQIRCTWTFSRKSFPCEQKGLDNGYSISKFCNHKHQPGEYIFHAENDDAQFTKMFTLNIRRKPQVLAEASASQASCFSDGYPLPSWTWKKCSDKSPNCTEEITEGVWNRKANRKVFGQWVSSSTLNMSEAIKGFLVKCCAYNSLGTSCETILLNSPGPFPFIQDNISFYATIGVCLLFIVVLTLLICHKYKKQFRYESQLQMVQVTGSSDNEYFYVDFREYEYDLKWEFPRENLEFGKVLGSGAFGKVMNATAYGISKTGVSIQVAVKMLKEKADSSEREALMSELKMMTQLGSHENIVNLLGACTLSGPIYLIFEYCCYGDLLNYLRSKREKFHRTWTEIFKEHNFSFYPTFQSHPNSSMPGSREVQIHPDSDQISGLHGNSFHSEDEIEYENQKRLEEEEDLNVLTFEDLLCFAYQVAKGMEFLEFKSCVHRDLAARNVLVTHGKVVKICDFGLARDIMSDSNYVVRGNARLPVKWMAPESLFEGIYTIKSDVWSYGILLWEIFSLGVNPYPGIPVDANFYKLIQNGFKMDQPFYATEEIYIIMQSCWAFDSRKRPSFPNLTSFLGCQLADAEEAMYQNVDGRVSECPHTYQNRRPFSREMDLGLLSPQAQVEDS
The data set is described as follows: radioisotope-based P81 filter-binding assay, FLT-3 kinase. The data set is classed as biochemical. Particulars: averaged from two independent dose-response curves; read-out: Enzyme assay IC50 FLT-3. The procedure: (§1) Compounds of formula (I)-(IV) were evaluated for abilities in inhibiting protein kinases aurora B and FLT-3 activity using radioisotope-based P81 filter-binding assay (Table 1).

The target of a further data set is aurora B (Homo sapiens, UniProt Q96GD4). The data set is described as follows: radioisotope-based P81 filter-binding assay, aurora B kinase. The data set is classed as biochemical. To be noted: averaged from two independent dose-response curves; read-out: Enzyme assay IC50 Aur B. The procedure: as §1
Chain of aurora B (Q96GD4 whole entry): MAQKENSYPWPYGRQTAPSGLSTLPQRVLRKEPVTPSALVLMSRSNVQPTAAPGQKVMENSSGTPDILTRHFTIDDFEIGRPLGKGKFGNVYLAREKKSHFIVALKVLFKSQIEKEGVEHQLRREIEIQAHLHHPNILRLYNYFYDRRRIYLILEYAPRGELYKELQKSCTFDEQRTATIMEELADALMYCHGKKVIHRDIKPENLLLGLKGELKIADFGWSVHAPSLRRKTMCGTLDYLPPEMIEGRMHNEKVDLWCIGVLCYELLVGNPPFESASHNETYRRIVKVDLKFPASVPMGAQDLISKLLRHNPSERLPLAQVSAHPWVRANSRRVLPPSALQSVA

One may read the pIC50 as the negative decadic logarithm of the IC50, by convention in mol/L. The melting point is the temperature, or range, at which the solid turns liquid. As to `O=C(NC(=O)c1ccc(Cl)c(C(F)(F)F)c1)Nc1ccc2c(c1)NC(=O)/C2=C\c1ccc[nH]1` [D28, (Z)—N-(3-((1H-pyrrol-2-yl)methylene)-2-oxoindolin-6-ylcarbamoyl)-4-chloro-3-(trifluoromethyl)benzamide], the melting point was 280 to 285 °C (dec.). In data set [1], this molecule had a pIC50 of 9.10. In addition, at FLT-3, the pIC50 was 6.41. Besides, at aurora B, the pIC50 is 7.82.
On the same counts, the results for `O=C1Nc2cc(NC(=O)c3cccn(-c4ccccc4)c3=O)ccc2/C1=C/c1ccc[nH]1` [D105, (Z)—N-(3-((1H-pyrrol-2-yl)methylene)-2-oxoindolin-6-yl)-2-oxo-1-phenyl-1,2-dihydropyridine-3-carboxamide] are above 300 °C, 9.89, 7.32 and 7.06.
On the same counts, the results for `COc1ccc(-n2cccc(C(=O)Nc3ccc4c(c3)NC(=O)/C4=C\c3ccc[nH]3)c2=O)cc1` [D106, (Z)—N-(3-((1H-pyrrol-2-yl)methylene)-2-oxoindolin-6-yl)-1-(4-methoxyphenyl)-2-oxo-1,2-dihydropyridine-3-carboxamide] are above 300 °C, 7.90, below 6.00 and 6.68.
On the same counts, the results for `O=C1Nc2cc(NC(=O)c3cccn(-c4ccc(Cl)cc4)c3=O)ccc2/C1=C/c1ccc[nH]1` [D108] are above 300 °C, 9.06, 7.58 and below 6.00.
Take `O=C1Nc2cc(NC(=O)c3cccn(-c4ccc(Cl)c(C(F)(F)F)c4)c3=O)ccc2/C1=C/c1ccc[nH]1` [D109, (Z)—N-(3-((1H-pyrrol-2-yl)methylene)-2-oxoindolin-6-yl)-1-(4-chloro-(3-trifluoromethyl)phenyl)-2-oxo-1,2-dihydropyridine-3-carboxamide]: the figures for the pIC50 (in data set [1]; at FLT-3; at aurora B) were 8.14, 7.11 and below 6.00, respectively.
In turn, `Cc1ccc(-n2cccc(C(=O)Nc3ccc4c(c3)NC(=O)/C4=C\c3ccc[nH]3)c2=O)cc1` [D111, (Z)—N-(3-((1H-pyrrol-2-yl)methylene)-2-oxoindolin-6-yl)-2-oxo-1-p-tolyl-1,2-dihydropyridine-3-carboxamide] gave a melting point above 300 °C. Further, the pIC50 in data set [1] is 8.47. On FLT-3, the pIC50 is 7.43. Besides, the pIC50 at aurora B was 6.68.
For `O=C1Nc2cc(NC(=O)c3cccn(-c4ccc(C(F)(F)F)cc4)c3=O)ccc2/C1=C/c1ccc[nH]1` [D112] the same measures were above 300 °C, 8.68, 6.86 and below 6.00.
On the same counts, the results for `O=C1Nc2cc(NC(=O)c3cccn(-c4cccc(C(F)(F)F)c4)c3=O)ccc2/C1=C/c1ccc[nH]1` [D113] are above 300 °C, 8.56, 6.87 and 6.16.
On the same counts, the results for `O=C1Nc2cc(NC(=O)c3cccn(-c4cccc(Cl)c4)c3=O)ccc2/C1=C/c1ccc[nH]1` [D114] are above 300 °C, 8.81, 7.04 and 6.60.
Take `O=C1Nc2cc(NC(=O)c3cccn(-c4ccccc4F)c3=O)ccc2/C1=C/c1ccc[nH]1` [D115]: the melting point was above 300 °C. The molecule also showed a negative logarithm of the IC50 (pIC50) in data set [1] of 8.17. For the same molecule, at FLT-3, the negative-log IC50 (pIC50) is 6.27. Besides, the pIC50 on aurora B is 6.86.
For `Cc1cc(C)c(/C=C2\C(=O)Nc3cc(NC(=O)c4cccn(-c5ccc(F)cc5)c4=O)ccc32)[nH]1` [D119, (Z)—N-(3-((3,5-dimethyl-1H-pyrrol-2-yl)methylene)-2-oxoindolin-6-yl)-1-(4-fluorophenyl)-2-oxo-1,2-dihydropyridine-3-carboxamide] the same measures were above 300 °C, 8.86, 8.09 and below 6.00.
Turning to `Cc1[nH]c(/C=C2\C(=O)Nc3cc(NC(=O)c4cccn(-c5ccc(F)cc5)c4=O)ccc32)c(C)c1C(=O)O` [D120, (Z)-5-((6-(1-(4-fluorophenyl)-2-oxo-1,2-dihydropyridine-3-carboxamido)-2-oxoindolin-3-ylidene)methyl)-2,4-dimethyl-1H-pyrrole-3-carboxylic acid], the melting point is above 300 °C. Moreover, the pIC50 in data set [1] is 9.64. Further, the negative-log IC50 (pIC50) on FLT-3 was 8.09. Also, the pIC50 at aurora B is 7.97.
Consider `Cc1[nH]c(/C=C2\C(=O)Nc3cc(NC(=O)c4cccn(C)c4=O)ccc32)c(C)c1C(=O)O` [D124, (Z)-2,4-dimethyl-5-((6-(1-methyl-2-oxo-1,2-dihydropyridine-3-carboxamido)-2-oxoindolin-3-ylidene)methyl)-1H-pyrrole-3-carboxylic acid], for which the melting point was above 300 °C. For the same molecule, the pIC50 on FLT-3 is 8.38. In addition, on aurora B, the negative-log IC50 (pIC50) was 7.84.
As for `Cn1cc(C(=O)Nc2ccc3c(c2)NC(=O)/C3=C\c2ccc[nH]2)c(=O)c(-c2ccc(F)cc2)c1` [D138, (Z)—N-(3-((1H-pyrrol-2-yl)methylene)-2-oxoindolin-6-yl)-5-(4-fluorophenyl)-1-methyl-4-oxo-1,4-dihydropyridine-3-carboxamide], the pIC50 in data set [1] is 7.75; on FLT-3, below 6.00; at aurora B, 7.02.
Molecule `Cc1c[nH]cc(C(=O)Nc2ccc3c(c2)NC(=O)/C3=C\c2ccc[nH]2)c1=O` [D139, (Z)—N-(3-((1H-pyrrol-2-yl)methylene)-2-oxoindolin-6-yl)-5-methyl-4-oxo-1,4-dihydropyridine-3-carboxamide] returned a melting point above 300 °C. In addition, the pIC50 at FLT-3 was 7.19. In addition, the negative logarithm of the IC50 (pIC50) on aurora B was 7.53.
For `COc1ccc(-c2c[nH]cc(C(=O)Nc3ccc4c(c3)NC(=O)/C4=C\c3[nH]c(C)c(C(=O)O)c3C)c2=O)cc1` [D142, (Z)-5-((6-(5-(4-methoxyphenyl)-4-oxo-1,4-dihydropyridine-3-carboxamido)-2-oxoindolin-3-ylidene)methyl)-2,4-dimethyl-1H-pyrrole-3-carboxylic acid], the pIC50 in data set [1] was 8.17; on FLT-3, 7.61; on aurora B, 8.35.
In turn, `Cc1[nH]c(/C=C2\C(=O)Nc3cc(NC(=O)c4c[nH]cc(C)c4=O)ccc32)c(C)c1C(=O)O` [D143, (Z)-2,4-dimethyl-5-((6-(5-methyl-4-oxo-1,4-dihydropyridine-3-carboxamido)-2-oxoindolin-3-ylidene)methyl)-1H-pyrrole-3-carboxylic acid] gave a melting point above 300 °C. Further, the pIC50 on FLT-3 was 6.71. On aurora B, the pIC50 was 8.43.
On the same counts, the results for `Cc1cc(C(=O)O)[nH]c1/C=C1\C(=O)Nc2cc(NC(=O)c3c[nH]cc(-c4ccc(F)cc4)c3=O)ccc21` [D146, (Z)-5-((6-(5-(4-fluorophenyl)-4-oxo-1,4-dihydropyridine-3-carboxamido)-2-oxoindolin-3-ylidene)methyl)-4-methyl-1H-pyrrole-2-carboxylic acid] are 243 °C, below 6.00 and below 6.00.
In turn, `Cc1[nH]c(/C=C2\C(=O)Nc3cc(NC(=O)c4c[nH]cc(-c5cc(F)cc(F)c5)c4=O)ccc32)c(C)c1CCC(=O)O` [D148, (Z)-3-(5-((6-(5-(3,5-difluorophenyl)-4-oxo-1,4-dihydropyridine-3-carboxamido)-2-oxoindolin-3-ylidene)methyl)-2,4-dimethyl-1H-pyrrol-3-yl)propanoic acid] returned a melting point above 300 °C. In addition, the pIC50 at FLT-3 is 7.30. Moreover, at aurora B, the pIC50 was 8.17.
On the same counts, the results for `COc1ccc(-c2c[nH]cc(C(=O)Nc3ccc4c(c3)NC(=O)/C4=C\c3[nH]c(C)c(C(=O)N4CCN(C)CC4)c3C)c2=O)cc1` [D154] are 235 °C (dec.), 8.92 and 6.87.
